Data reported in patent US12599599B2, “Anti-inflammatory, anti-cancer, and anti-angiogenic compounds, pharmaceutical compositions, and methods of making and using thereof” (MEDICON PHARMACEUTICALS, INC., priority 2017, dated 2026).
Values belong to the molecule of their own block, whether it stands above or below them.

Columns and labels:
HEY-T30 xenografts = assay: Synergy with cyclophosphamide, Taxol resistant subcutaneous xenografts; assay type: in vivo, nude mice; settings: day 21; compound 5 10 mg/kg/day six days a week ip; cyclophosphamide 10 mg/kg six days a week orally; or both
SKOV-3 ovarian cancer = assay: 24 hr growth inhibition of cell line; assay type: cell-based; settings: Homo sapiens, SK-OV-3, 24 h
Description: (§1) The therapeutic efficacy of compounds 2, 5, and 6 was assessed in human and murine cell lines of varied tissue origin, and their 24 hr 50% inhibitory concentration was determined by following standard methodologies. Typical results are shown in the Table 5, indicating a broad anticancer effect.
Ovarian cancer cells were studied in greater detail using the following ovarian cancer cell lines: SKOV-3, OVCAR3, A2780 (and two cell lines derived from it, A2870cis that is resistant to cisplatin, and A2870ADR that is resistant to doxorubicin (Adriamycin)), and HEY (sensitive to paclitaxel (Taxol), and its derivative HEY-T30 that is Taxol-resistant). […]

A549 lung cancer = assay: 24 hr growth inhibition of cell line; assay type: cell-based; settings: Homo sapiens
Description: as §1

AGS gastric cancer = assay: 24 hr growth inhibition of cell line; assay type: cell-based; settings: Homo sapiens
Description: as §1

HCT116 colon cancer = assay: 24 hr growth inhibition of cell line; assay type: cell-based; settings: Homo sapiens, HCT-116, 24 h
Description: as §1

RAW264 murine macrophage = assay: 24 hr growth inhibition of cell line; assay type: cell-based; settings: Mus musculus, RAW264.7, 24 h
Description: as §1

[1] = Ocular pharmacokinetics and biodistribution after eye drops; assay type: in vivo, New Zealand rabbits; set-up: unit not given here; settings: rabbit, 20% eye drops
Description: The pharmacokinetics and biodistribution of compounds 1, 2, and 5 in the eye of rabbits were determined. Each of these compounds was dissolved in phosphate buffered saline (PBS) and used as eye drops. The eye drops were sterilized before application to rabbits by filtration through a 0.2 μm membrane. […] The eyes were harvested and eye tissues and the lacrimal glands were dissected, homogenized and the test compounds were extracted by acetonitrile and analyzed by HPLC, as described under Compound Synthesis described herein. Compounds 1 and 2 were detected at 328 nm, and compound 5 at 260 nm. […] All three compounds can unexpectedly, readily, and rapidly reach the posterior chamber of the eye.

[2] = Biodistribution in human eyes removed from deceased donors; assay type: in vitro ADME; settings: human eye, 10% (w/v) solution, then 1 h incubation
Description: Compound 6 3% (formulated in polyethylene glycol 155; Tween 80% 1%; Kolliphor EL 10%, made to 100% with normal saline; pH 7.2) was injected iv as a single dose of 30 mg/kg. Its retina levels were 4.9 μM and 1 μM at 1 h and 2 h, respectively (the corresponding sclera levels were similar, 3.2 μM and 2.0 μM). When compound 6 was given ip (in corn oil) as a single dose of 100 mg/kg its retina levels became detectable at 3 h (3.2 μM) and remained at 2.8 μM at 4 h and 6 h. Similarly, after its single topical administration, compound 6 3% (formulated in vitamin E TPGS 16%, mannitol 3.2% boric acid 1.2% and polyquad 0.005%, pH 7.2) produced retinal levels of 2.1 μM at 4 h. The biodistribution of compound 2 in human eyes that were recently removed from deceased donors and kept on ice until used within hours was also evaluated. In this study, compound 2 was dissolved in pure water, its pH was adjusted to 4.8±0.1 and its osmolarity to 290 mOsm. The final concentration of compound 2 was 10% (w/v).
The anterior surface of each was brought into contact with the above solution of compound 2 at 37° C.; the solution level was about 3 mm above the cornea edge. After 1 minute or 10 minutes the eyes were rinsed thoroughly with PBS, incubated for 1 h, and dissected to harvest the retina, choroid, aqueous humor, ciliary body, iris and cornea, which ere assayed by HPLC. As shown in the below table, compound 2 did reach the posterior segment of the eye.

[3] = tested on: oxygen-induced retinopathy; assay: Mouse model of oxygen-induced retinopathy; assay type: in vivo, C57BL/6 mice; settings: 10% w/v eye drops 5 times daily, P12 to P17
Description: C57BL/6 mice were reared in 75±2% oxygen air starting on postnatal day 7 (P7) and moved into room air on P12, when they were injected intravitreally with 1 μl of 1% compound 6 solution or vehicle. On P17, the pups were euthanized, both eyes were enucleated and fixed with 4% paraformaldehyde (PFA). Following several intermediate steps, the retina was existed and fixed further with 4% PFA overnight. After appropriate washings, the retina was incubated with 10 μg/ml of FITC-conjugated anti-lectin antibody overnight and retina flat-mounts were prepared on glass slides and evaluated by fluorescence microscopy. The areas of the avascular, neovascular and whole retina were determined using ImageJ software.
In another study, the same mouse model of oxygen-induced retinopathy described above was used. In this study, mice were treated daily with an aqueous solution of compound 2 (pH=4.6, osmolarity=282 mOsm; concentration=10% w/v) from postnatal day 12 to day 17. Compound 2 was administered as one eye drop per eye every 2 hours during the day time for a total of 5 administrations daily. At the end of the study, mice were euthanized and their retinas dissected and studied by immunofluorescence using an antibody against lectin I, isolectin B4 (Vector Laboratories) and evaluated as above.

A2780cis xenografts = assay: Subcutaneous xenografts in nude mice, cisplatin resistant; assay type: in vivo; settings: compound 5 15 mg/kg/day six days a week ip; cis-platinum 5.5 mg/kg one time a week ip
Description: Compound 6 was also efficacious against chemotherapy-resistant ovarian cancer. […] The effect of compound 6 in cisplatin resistant (A2780cis) and doxorubicin (Adriamycin) resistant (A2780ADR) tumors was studied. Briefly, each of these cell lines was subcutaneously inoculated into athymic nude mice and when the tumor size reached 100-200 mm^3, compound 6 150 mg/kg/day or its vehicle were given i.p. After 11 days of treatment, for the cisplatin-resistant tumors the tumor volume of the vehicle group was 2388±127 mm^3 and for compound 6 group 1032±108 mm^3 (mean±SEM; P<0.02); while for the doxorubicin-resistant tumors these values were: vehicle group=1369±337 mm^3 and compound 6 group=396±182 mm^3 (P<0.02).
(§2) To determine whether compound 5 is efficacious against chemotherapy-resistant ovarian cancer, three pairs of sensitive and resistant human ovarian cancer cell lines were grown as subcutaneous xenografts in nude mice and treated as summarized in FIG. 10. These cell lines were: A2780, sensitive to both cis-platinum and Adriamycin (doxorubicin); A2780cis, resistant to cis-platinum; A2780ADR, resistant to Adriamycin: HEY, sensitive to Taxol; HEY-T30, resistant to Taxol. The treatments administered were: vehicle control; compound 5, 15 mg/kg/day six days a week, ip; cis-platinum 5.5 mg/kg, one time a week ip; Adriamycin 3 mg/kg twice a week ip; and Taxol 20 mg/kg twice a week ip.

A2780 xenografts = assay: Subcutaneous xenografts in nude mice, platinum sensitive; assay type: in vivo; settings: compound 5 15 mg/kg/day six days a week ip; cis-platinum 5.5 mg/kg one time a week ip
Description: as §2

[4] = tested on: Ras palmitoylation in A2780 and A2780cis ovarian cancer cells; assay: Ras palmitoylation (resin capture, immunoblot); assay type: cell-based, human
Description: FIGS. 18A-18B illustrate the effect of compounds 5 and 6 on K-Ras. FIG. 18A: Compound 6 suppressed of K-Ras activation. Cells with mutant K-Ras were treated with compound 6 1.5×IC50 for the respective time periods. K-Ras activity was determined by Ras pull-down (Thermo Scientific; following vendor instructions). K-Ras activation is suppressed 37% at 1 hr and 88% at 2 hrs compared to respective controls. FIG. 18B: Compound 5 suppressed the palmitoylation of Ras in A2780 and A2780cis (resistant to cisplatin) ovarian cancer cells. Palmitoylation is detected by removing S-palmitate groups from proteins, creating new free thiols (where the palmitic acid group used to be) and capturing the previously S-palmitoylated proteins on a resin, using a commercial kit (Badrilla, Leeds, UK). Ras was detected in the eluate by immunoblot.
This effect may be particularly useful in types of cancer characterized by K-Ras mutation such as, for example, pancreatic, lung and ovarian cancer. FIG. 18A illustrates the inhibition of K-Ras activation by compound 6. […] This property of compound 5 is not shared for example by compound 6 or phosphosulindac.

SMILES: O=P1(N(CCCl)CCCl)NCCCO1 (stereo not drawn) [cyclophosphamide, reference compound]
inhibition of tumor growth compared to control (HEY-T30 xenografts): 23%

SMILES: CCOP(=O)(NCCN1CCN(C(=O)CC2=C(C)/C(=C/c3ccc([S+](C)[O-])cc3)c3ccc(F)cc32)CC1)OCC (stereo not drawn) [Compound 2]
IC50 (SKOV-3 ovarian cancer): 480 µM
IC50 (A549 lung cancer): 400 µM
IC50 (AGS gastric cancer): 306 µM
IC50 (HCT116 colon cancer): 460 µM
IC50 (RAW264 murine macrophage): 160 µM
Drug level in Choroid ([1]; 2 hr): 5.3
Drug level in Conjunctiva ([1]; 2 hr): 16.1
Drug level in Cornea ([1]; 2 hr): 106.1
Drug level in Iris ([1]; 2 hr): 9.9
Drug level in Lens ([1]; 2 hr): 0.3
Drug level in Retina ([1]; 2 hr): 4.1
Drug level in Sclera ([1]; 2 hr): 50.7
Drug level in Vitreous ([1]; 2 hr): 1.2
Drug level in Choroid ([1]; 3 hr): 6.4
Drug level in Conjunctiva ([1]; 3 hr): 13.5
Drug level in Cornea ([1]; 3 hr): 46.0
Drug level in Iris ([1]; 3 hr): 9.8
Drug level in Lens ([1]; 3 hr): 4.0
Drug level in Retina ([1]; 3 hr): 1.7
Drug level in Sclera ([1]; 3 hr): 22.4
level in aqueous humor ([2]; 1 minute exposure): 1.0 µM
level in choroid ([2]; 1 minute exposure): 425.9 µM
level in ciliary body ([2]; 1 minute exposure): 124.6 µM
level in cornea ([2]; 1 minute exposure): 166.3 µM
level in iris ([2]; 1 minute exposure): 43.1 µM
level in retina ([2]; 1 minute exposure): 12.6 µM
level in aqueous humor ([2]; 10 minutes exposure): 5.3 µM
level in choroid ([2]; 10 minutes exposure): 273.5 µM
level in ciliary body ([2]; 10 minutes exposure): 206.9 µM
level in cornea ([2]; 10 minutes exposure): 512.6 µM
level in iris ([2]; 10 minutes exposure): 10.3 µM
level in retina ([2]; 10 minutes exposure): 46.6 µM
avascular area of the retina, percentage of the entire retina surface area (mean±SEM) ([3]; vehicle 16.8±1.1): 5.8±0.8%
neovascular area of the retina, percentage of the entire retina surface area (mean±SEM) ([3]; vehicle 20.7±3.7): 9.9±2.2%

SMILES: N.N.[Cl][Pt][Cl] [cis-platinum, reference compound]
growth of platinum-resistant xenografts (A2780cis xenografts): failed to significantly inhibit tumor growth
growth of platinum-sensitive xenografts (A2780 xenografts): suppressed the growth

Drug level in Choroid ([1]; 1 hr): 4.1
Drug level in Conjunctiva ([1]; 1 hr): 71.6
Drug level in Cornea ([1]; 1 hr): 61.8
Drug level in Iris ([1]; 1 hr): 6.9
Drug level in Lens ([1]; 1 hr): 20.2
Drug level in Retina ([1]; 1 hr): 7.5
Drug level in Sclera ([1]; 1 hr): 10.1
Drug level in Vitreous ([1]; 1 hr): 0.9
Drug level in Choroid ([1]; 3 hr): 2.1
Drug level in Conjunctiva ([1]; 3 hr): 52.5
Drug level in Cornea ([1]; 3 hr): 16.2
Drug level in Iris ([1]; 3 hr): 7.6
Drug level in Lens ([1]; 3 hr): 4.6
Drug level in Retina ([1]; 3 hr): 1.8
Drug level in Sclera ([1]; 3 hr): 2.5
Drug level in Vitreous ([1]; 3 hr): 0.5
SMILES: CC1=C(CC(=O)N2CCN(CCNS(C)(=O)=O)CC2)c2cc(F)ccc2/C1=C\c1ccc([S+](C)[O-])cc1 (stereo not drawn) [Compound 1]

SMILES: CCOP(=O)(OCC)OCCCCOC(=O)CC1=C(C)/C(=C/c2ccc([S+](C)[O-])cc2)c2ccc(F)cc21 (stereo not drawn) [phosphosulindac, reference compound]
suppression of palmitoylation of Ras [4]: not shared
